Reference: PMC2776349, “Asymmetric Deactivation of HIV-1 gp41 following Fusion Inhibitor Binding” (PLoS Pathogens, 2009)
Ends that are not written are not given here.

Tested on: EnvG547D/I548T and EnvV549E
Format: cell-based
Conditions: versus wild type Env
For “GGHTTWMEWDREINKYISLIHSLIEESQNQQEKNEQELLGHHHHHH [N637K/T639I (KYI)]”, the “impact of G547D/I548T and V549E substitutions on potency” value was “minimal impact”.

Tested on: HIV-1HXB2 (gp41)
Conditions: 1HXB2 (gp41, 48 h)
Work on “GGHTTWMEWDREINNYTSLDHSLIEESQNQQEKNEQELLGHHHHHH [Variant I642D]” yielded an IC50 of 13000 ± 2100 nM. With “GGHTTWMEWDREINNYTSLIHSLIEESQNAQEKNEQELLGHHHHHH [Variant Q652A]” the IC50 was 3.5 ± 0.81 nM. With “GGHTTDMEWDREANNYTSLIHSLIEESQNQQEKNEQELLGHHHHHH [W628D/I635A]” the IC50 was 97 ± 8.4 nM. “GGHTTWMEWDREDNNYTSLIHSLIEESQNQQEKNEQELLGHHHHHH [Variant I635D]” showed an IC50 of 3100 ± 350 nM. Work on “GGHTTWMEWDREINNYTSLIHSLIEESQNQQEKNEQALLGHHHHHH [Variant E659A]” yielded an IC50 of 1.2 ± 0.13 nM. “GGHTTWMEWDREANNYTSLIHSLIEESQNQQEKNEQELLGHHHHHH [Variant I635A]” showed an IC50 of 5.7 ± 1.6 nM. Sequence “GGHTTWMEWDREINNYTSLAHSLIEESQNQQEKNEQELLGHHHHHH [Variant I642A]” has an IC50 of 7 ± 1.5 nM. With “GGHTTWMEWDREINNYTSLIHSDIEESQNQQEKNEQELLGHHHHHH [Variant L645D]” the IC50 was 630 ± 120 nM. Sequence “GGHTTWMEWDREINKYISLIHSLIEESQNQQEKNEQELLGHHHHHH [N637K/T639I (KYI)]” has an IC50 of 0.96 ± 0.1 nM. In the case of “GGHTTWMEWDREINNYTSLIHSLIEESQNQQEKAEQELLGHHHHHH [Variant N656A]”, the IC50 is reported as 30 ± 4.2 nM. With “GGHTTWMEWDREINNYTSLIHSLIEEDQNQQEKNEQELLGHHHHHH [Variant S649D]” the IC50 was 2300 ± 170 nM. For “GGHTTWMEWDREINNYTSLIHSLIEEAQNQQEKNEQELLGHHHHHH [Variant S649A]”, the IC50 was 1.6 ± 0.41 nM. Sequence “GGHTTDMEWDREINNYTSLAHSLIEESQNQQEKNEQELLGHHHHHH [W628D/I642A]” has an IC50 of 65 ± 9.8 nM. For “GGHTTWMEWDREINNYTSLIHSLIEESQNDQEKNEQELLGHHHHHH [Variant Q652D]”, the IC50 was 53 ± 0.98 nM. Work on “GGHTTWMEWDREINKYTSLIHSLIEESQNQQEKNEQELLGHHHHHH [N637K (KYT)]” yielded an IC50 of 1.65 ± 0.05 nM. For “GGHTTWMEWDREINNYTSLIHSLIEESQNQQEKDEQELLGHHHHHH [Variant N656D]”, the IC50 was 100 ± 8.9 nM. For “GGHTTWMEWDREINNYISLIHSLIEESQNQQEKNEQELLGHHHHHH [T639I (NYI)]”, the IC50 was 1.7 ± 0.1 nM. For “GGHTTWMEWDREINNYTSLIHSAIEESQNQQEKNEQELLGHHHHHH [Variant L645A]”, the IC50 was 3.9 ± 0.7 nM.

Tested on: HIV-1HXB2
Format: cell-based
Conditions: low (HOS-CD4-CCR5) versus high (HOS-CD4-CXCR4) CXCR4, HIV-1HXB2
With “GGHTTWMEWDREINKYISLIHSLIEESQNQQEKNEQELLGHHHHHH [N637K/T639I (KYI)]” the “increase in potency on lowering CXCR4 levels” value was 3.5 fold.

Molecular target: fluorescein-labeled 5-Helix (Human immunodeficiency virus type 1 group M subtype B, UniProt P04578, C598G/DEL582-596/DEL601-623/N624G)
Format: binding, HIV-1HXB2
Conditions: not given
For “GGHTTWMEWDREINKYISLIHSLIEESQNQQEKNEQELLGHHHHHH [N637K/T639I (KYI)]”, the kon was 2.4±0.1 x10^7 M-1s-1.

Same assay, conditions: C37 variants; reciprocal of koff
In the case of “GGHTTWMEWDREINKYISLIHSLIEESQNQQEKNEQELLGHHHHHH [N637K/T639I (KYI)]”, the “τoff (time constant for dissociation)” value is reported as 11000 min.

Tested on: HIV-1
Conditions: compared with wild type C37; ref KMK and MJR, manuscript in preparation; cited from earlier work
In the case of “GGHTTWMEWDREINKYISLIHSLIEESQNQQEKNEQELLGHHHHHH [N637K/T639I (KYI)]”, the resistance development is listed as “takes much longer to achieve and requires more escape mutations than resistance to wild type C37”.
